PMC7124378 (International Journal of Biological Macromolecules, 2015)

How the values were obtained:
cathepsin B = cathepsin B (Capra hircus, UniProt A0A452G2V1); experiment: Inhibition of purified goat liver cathepsin B, BANA substrate, pH 6.0; assay type: biochemical
cathepsin H = target: T1, cathepsin H (Capra hircus, UniProt A0A452G5L2); experiment: Inhibition of purified goat liver cathepsin H, Leu-βNA substrate, pH 7.0; assay type: biochemical
T1 sequence (A0A452G5L2 with tags, fused parts or gaps): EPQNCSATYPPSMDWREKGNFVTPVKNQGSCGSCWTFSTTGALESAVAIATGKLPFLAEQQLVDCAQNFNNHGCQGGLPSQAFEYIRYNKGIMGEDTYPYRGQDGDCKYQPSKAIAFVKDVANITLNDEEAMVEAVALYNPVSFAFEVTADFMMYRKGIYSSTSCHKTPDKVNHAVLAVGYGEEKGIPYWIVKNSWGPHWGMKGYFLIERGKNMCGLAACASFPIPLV

cathepsin L = cathepsin L (Capra hircus, UniProt A0A452FFI6); experiment: Inhibition of purified goat liver cathepsin L, ZPheArg-4mβNA substrate, pH 6.0; assay type: biochemical
goat brain cathepsin L = settings: read-out: Ki, goat brain cathepsin L; cited from earlier work
goat brain cathepsin B = settings: read-out: Ki, goat brain cathepsin B; competitive; cited from earlier work

Ki (cathepsin B) [µM]	Ki (cathepsin H) [µM]	Ki (cathepsin L) [nM]	inhibition at 1 µM (cathepsin B; read-out: % inhibition of cathepsin B) [%]	inhibition at 10 µM (cathepsin H; read-out: % inhibition of cathepsin H) [%]	inhibition at 0.001 µM (cathepsin L; read-out: % inhibition of cathepsin L) [%]	SMILES	Ki (goat brain cathepsin L) [µM]	Ki (goat brain cathepsin B) [µM]
116 ± 2	48 ± 0.5	23.4 ± 0.2	–	–	–	Cc1ccc(C2CC(c3ccccc3)=NN2C(N)=O)cc1 (centres unmarked) [Compound 3j]	–	–
9.4 ± 0.03	60 ± 0.3	31.6 ± 0.4	–	–	–	NC(=O)N1N=C(c2ccccc2)CC1c1ccccc1Cl (centres unmarked) [Compound 3a, 5-(2′-chlorophenyl)-3-phenyl-2-pyrazoline-1-carboxamide]	–	–
82.7 ± 1	25 ± 0.5	50.5 ± 0.3	–	–	–	NC(=O)N1N=C(c2ccccc2)CC1c1cccc(Cl)c1 (centres unmarked) [Compound 3b, 5-(3′-chlorophenyl)-3-phenyl-2-pyrazoline-1-carboxamide]	–	–
69.3 ± 0.07	48 ± 0.2	0.5 ± 0.002	–	–	–	COc1ccc(C2CC(c3ccccc3)=NN2C(N)=O)cc1 (centres unmarked) [Compound 3f]	–	–
14.8 ± 0.07	40 ± 0.1	217 ± 4	–	–	–	COc1ccccc1C1CC(c2ccccc2)=NN1C(N)=O (centres unmarked) [Compound 3d]	–	–
58.1 ± 0.05	38 ± 0.2	0.4 ± 0.005	–	–	–	NC(=O)N1N=C(c2ccccc2)CC1c1cccc([N+](=O)[O-])c1 (centres unmarked) [Compound 3g, 5-(3′-nitrophenyl)-3-phenyl-2-pyrazoline-1-carboxamide]	–	–
34.9 ± 0.1	43 ± 0.1	8.2 ± 0.06	–	–	–	COc1cccc(C2CC(c3ccccc3)=NN2C(N)=O)c1 (centres unmarked) [Compound 3e]	–	–
39 ± 0.03	60 ± 0.3	16.9 ± 0.3	–	–	–	NC(=O)N1N=C(c2ccccc2)CC1c1ccc([N+](=O)[O-])cc1 (centres unmarked) [Compound 3h]	–	–
39 ± 0.2	66 ± 0.4	33 ± 0.1	–	–	–	NC(=O)N1N=C(c2ccccc2)CC1c1ccc(Cl)cc1 (centres unmarked) [Compound 3c]	–	–
52.4 ± 0.01	192 ± 0.4	86.2 ± 0.2	–	–	–	NC(=O)N1N=C(c2ccccc2)CC1c1ccccc1 (centres unmarked) [Compound 3i]	–	–

Further lines, the compound ahead of its results:

SMILES	Ki (cathepsin B) [µM]	Ki (cathepsin H) [µM]	Ki (cathepsin L) [nM]	inhibition at 1 µM (cathepsin B; read-out: % inhibition of cathepsin B) [%]	inhibition at 10 µM (cathepsin H; read-out: % inhibition of cathepsin H) [%]	inhibition at 0.001 µM (cathepsin L; read-out: % inhibition of cathepsin L) [%]	Ki (goat brain cathepsin L) [µM]	Ki (goat brain cathepsin B) [µM]
O=C(/C=C/c1ccccc1Cl)c1ccccc1 [Compound 1a, (E)-3-(2-chlorophenyl)-1-phenylprop-2-en-1-one]	19.5 ± 0.2	110 ± 1	6 ± 0.02	–	–	–	–	–
NC(=O)N/N=C(/C=C/c1ccc(Cl)cc1)c1ccccc1 [Compound 2c, (1Z)-1-((E)-3-(4-chlorophenyl)-1-phenylallylidene)semicarbazide]	27.3 ± 0.4	29 ± 0.5	1.17 ± 0.02	–	–	–	–	–
O=C(/C=C/c1cccc(Cl)c1)c1ccccc1 [Compound 1b, (E)-3-(3-chlorophenyl)-1-phenylprop-2-en-1-one]	130 ± 2	312 ± 2	0.04 ± 0.0001	–	–	–	–	–
NC(=O)N/N=C(\C=C\c1ccccc1Cl)c1ccccc1 [2a′, (1E)-1-((E)-3-(2-chlorophenyl)-1-phenylallylidene)semicarbazide]	2.7 ± 0.04	33 ± 0.4	0.04 ± 0.0003	–	–	–	–	–
O=C(/C=C/c1cccc([N+](=O)[O-])c1)c1ccccc1 [Compound 1g, (E)-3-(3-nitrophenyl)-1-phenylprop-2-en-1-one]	100 ± 1	60 ± 0.2	2.05 ± 0.03	–	–	–	–	–
NC(=O)N/N=C(/C=C/c1ccccc1Cl)c1ccccc1 [Compound 2a, (1Z)-1-((E)-3-(2-chlorophenyl)-1-phenylallylidene)semicarbazide]	0.207 ± 0.001	43 ± 0.2	1.78 ± 0.02	–	–	–	–	–
NC(=O)N/N=C(/C=C/c1cccc([N+](=O)[O-])c1)c1ccccc1 [Compound 2g, (1Z)-1-((E)-3-(3-nitrophenyl)-1-phenylallylidene)semicarbazide]	41.3 ± 0.5	23 ± 0.3	2.05 ± 0.02	–	–	–	–	–
NC(=O)N/N=C(\C=C\c1ccc(Cl)cc1)c1ccccc1 [2c′, (1E)-1-((E)-3-(4-chlorophenyl)-1-phenylallylidene)semicarbazide]	36.4 ± 0.5	21 ± 0.2	0.93 ± 0.007	–	–	–	–	–
CC(=O)N[C@@H](CC(C)C)C(=O)N[C@@H](CC(C)C)C(=O)N[C@H](C=O)CCCNC(=N)N [Leupeptin, reference compound]	–	–	–	~98.8	~52	89.2	0.00145	0.0125
